IC50 data for nine molecules are collected here from patent US12466820B2, “Amino quinazoline derivatives as P2X3 inhibitors” (CHIESI FARMACEUTICI S.p.A., priority 2019, dated 2025).

Test [1] deals with T1, h P2X2/3 (Homo sapiens, UniProt P56373+Q9UBL9).
T1 sequence (P56373 1-397): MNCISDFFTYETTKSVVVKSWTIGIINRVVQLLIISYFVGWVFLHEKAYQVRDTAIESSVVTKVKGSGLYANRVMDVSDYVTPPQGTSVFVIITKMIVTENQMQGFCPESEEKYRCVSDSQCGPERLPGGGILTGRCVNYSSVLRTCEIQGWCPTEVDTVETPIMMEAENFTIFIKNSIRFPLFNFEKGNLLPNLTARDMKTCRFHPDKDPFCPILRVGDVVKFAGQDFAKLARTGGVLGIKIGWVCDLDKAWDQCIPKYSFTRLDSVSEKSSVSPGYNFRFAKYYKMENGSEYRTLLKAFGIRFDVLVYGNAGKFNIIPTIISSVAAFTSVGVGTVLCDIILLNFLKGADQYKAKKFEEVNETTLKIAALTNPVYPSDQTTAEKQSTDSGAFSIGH
T1 sequence (Q9UBL9 1-471): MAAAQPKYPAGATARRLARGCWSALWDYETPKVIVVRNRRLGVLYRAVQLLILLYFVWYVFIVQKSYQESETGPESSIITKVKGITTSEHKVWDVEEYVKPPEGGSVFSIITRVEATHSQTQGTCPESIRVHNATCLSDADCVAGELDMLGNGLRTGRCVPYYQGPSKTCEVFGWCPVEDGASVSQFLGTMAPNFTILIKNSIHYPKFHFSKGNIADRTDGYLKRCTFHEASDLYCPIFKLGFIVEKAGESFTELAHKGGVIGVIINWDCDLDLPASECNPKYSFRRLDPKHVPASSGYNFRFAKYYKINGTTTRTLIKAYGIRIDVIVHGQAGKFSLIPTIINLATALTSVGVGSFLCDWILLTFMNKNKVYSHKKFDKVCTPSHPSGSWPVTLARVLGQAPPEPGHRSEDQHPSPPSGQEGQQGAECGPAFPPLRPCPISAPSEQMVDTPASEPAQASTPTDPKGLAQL
Kind of test: In vitro electrophysiology assay for P2X2/3 (same protocol, 10 μM ATP as agonist). Format: cell-based. To be noted: Table 7, range of activity. Here is the method: Cells expressing P2X3 receptors were grown according to standard practice and maintained at 37° C. in a 5% humidified CO2 atmosphere. The cells were seeded into T175 flask 2 days prior to the day of the assay and dissociated from the flasks using TrypLE when grown to confluence of 80-90%. The dissociated cells were resuspended in serum free media at a cell density of 3×10^6 cells/ml and loaded onto the Sophion Qube automated patch-clamp system. The extracellular assay buffer contained 145 mM NaCl, 4 mM KCl, 2 mM CaCl2), 1 mM MgCl2, 10 mM HEPES, and 10 mM glucose at pH 7.4. The intracellular assay solution contained 140 mM CsF, 10 mM NaCl, 10 mM EGTA, 10 mM HEPES at pH 7.2. Agonist stock solutions were prepared in H2O and diluted in bath solution prior to use. All antagonists were prepared as 10 mM stock solutions in DMSO and diluted in bath solution prior to use. All experiments were performed under the whole-cell patch clamp configuration at room temperature with 384 individual cells being voltage clamped at −60 mV simultaneously on the Sophion Qube instrument. Two baseline responses were established with the application of α,β-MeATP (800 nM), with the subsequent agonist applications being washed out using extracellular assay buffer containing 0.5 U/ml apyrase. Following the second agonist application, antagonist was incubated in the absence of α,β-MeATP for 10 minutes. After antagonist preincubation, 800 nM α,β-MeATP and antagonist were co-administered to determine the inhibitory effect of the antagonist. One concentration of an antagonist was assessed against a single cell, with different concentrations of the antagonist applied to other cells on the 384 recording substrate. The control P2X3 current amplitude was taken from the peak current amplitude from the second agonist response prior to preincubation with antagonist. The peak P2X3 current amplitude in the presence of antagonist was used to calculate the inhibitory effect at each concentration of the antagonist according to the following equation: […]
Concentration-response curves were constructed from ten different concentrations with each concentration of antagonist tested on at least two individual cells. The concentration of the antagonist to inhibit P2X3 current by 50% (IC50) was determined by fitting the data with the following equation: […]
Where ‘a’ is minimum response, ‘b’ is maximum response, ‘c’ is IC50 and ‘d’ is Hill slope.
Representative compound of the present invention have been also tested for P2X2/3 receptor.
The same assay protocol was used for the P2X2/3 assay as the P2X3 assay with two modifications: 1) 10 μM ATP was used as the agonist; and 2) the mean current amplitude was measured seven seconds after the application of agonist.

The target of test [2] is T2, h P2X3 (Homo sapiens, UniProt P56373).
T2 sequence (P56373 1-397): T1 sequence (P56373 1-397)
Kind of test: In vitro electrophysiology assay for P2X3 (automated whole-cell patch clamp, Sophion Qube). Format: cell-based. The note with it: range of activity. A digest of the protocol:
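Whole-cell automated patch clamp at room temperature, cells held at −60 mV; after two 800 nM α,β-MeATP baseline responses, antagonist preincubated 10 min then co-applied with 800 nM α,β-MeATP. Inhibition of peak current vs second agonist response; IC50 from 10-concentration curves, one concentration per cell.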

[3] abbreviates: Table 6, inhibition of P2X3 current, agonist α,β-MeATP (800 nM).

Molecules are shown by their SMILES. pIC50: −log10 of the molar value. Some results are limits rather than exact numbers.

With `COc1cc(-c2ccc(F)cn2)cc2c(NCc3ccc(C)nc3)ncnc12` [Example 149, 6-(5-fluoropyridin-2-yl)-8-methoxy-N-((6-methylpyridin-3-yl)methyl)quinazolin-4-amine], the pIC50 in test [1] was 4.50 to 5.50; in test [2] (setting [3]), above 6.50; in test [2] (Table 7) it was above 6.50.

As to `COc1cc(-c2ccc(F)cn2)cc2c(NCc3ccc(C(F)(F)F)nc3)ncnc12` [Example 150, 6-(5-fluoropyridin-2-yl)-8-methoxy-N-((6-(trifluoromethyl)pyridin-3-yl)methyl)quinazolin-4-amineamine], the pIC50 in test [1] is 4.50 to 5.50; in test [2] (setting [3]), above 6.50; in test [2] (Table 7) it was above 6.50.

Take `COc1cc(-c2ncc(C)cn2)cc2c(NCc3ccn(C)c(=O)c3)ncnc12` [Example 151, 4-(((8-methoxy-6-(5-methylpyrimidin-2-yl)quinazolin-4-yl)amino)methyl)-1-methylpyridin-2(1H)-one]: the pIC50 in test [1] was 5.50 to 6.50; in test [2] (setting [3]) it was above 6.50; in test [2] (Table 7) it was above 6.50.

Turning to `COc1cc(-c2ncc(C)cn2)cc2c(NCc3cccc(=O)[nH]3)ncnc12` [Example 152, 6-(((8-methoxy-6-(5-methylpyrimidin-2-yl)quinazolin-4-yl)amino)methyl)pyridin-2(1H)-one], the pIC50 is 4.50 to 5.50 in test [1], above 6.50 in test [2] (setting [3]) and above 6.50 in test [2] (Table 7).

Take `COc1cc(-c2ncc(C)cn2)cc2c(NCc3nnc(C)s3)ncnc12` [Example 153, 8-methoxy-N-((5-methyl-1,3,4-thiadiazol-2-yl)methyl)-6-(5-methylpyrimidin-2-yl)quinazolin-4-amine]: the pIC50 is 4.50 to 5.50 in test [1], above 6.50 in test [2] (setting [3]) and above 6.50 in test [2] (Table 7).

Regarding `COc1cc(-c2ncc(C)cn2)cc2c(NCc3ccc(C)nc3)ncnc12` [Example 154, 8-methoxy-N-((6-methylpyridin-3-yl)methyl)-6-(5-methylpyrimidin-2-yl)quinazolin-4-amine], the pIC50 was 5.50 to 6.50 in test [1], above 6.50 in test [2] (setting [3]) and above 6.50 in test [2] (Table 7).

Consider `COc1cc(-c2ncc(C)cn2)cc2c(NCc3ccc(C(F)(F)F)nc3)ncnc12` [Example 155], for which the pIC50 in test [1] was 5.50 to 6.50; in test [2] (setting [3]), above 6.50; in test [2] (Table 7), above 6.50.

Turning to `COc1cc(-c2ncc(C)cc2F)cc2c(N[C@H](C)c3noc(C)n3)ncnc12` [Example 157, 6-(3-fluoro-5-methyl-2-pyridyl)-8-methoxy-N-[(1R)-1-(5-methyl-1,2,4-oxadiazol-3-yl)ethyl]quinazolin-4-amine], the pIC50 in test [1] was 4.50 to 5.50; in test [2] (setting [3]), above 6.50; in test [2] (Table 7), above 6.50.

With `COc1cc(-c2ccc(C)cn2)cc2c(N[C@H](C)c3ccn(C)n3)ncnc12` [Example 159, 8-methoxy-N-[(1R)-1-(1-methylpyrazol-3-yl)ethyl]-6-(5-methyl-2-pyridyl)quinazolin-4-amine], the pIC50 in test [1] was 4.50 to 5.50; in test [2] (setting [3]), above 6.50; in test [2] (Table 7), above 6.50.
